Source: ChEMBL document CHEMBL3885881, “DrugMatrix”

Species on record: Rattus norvegicus
Assay: DrugMatrix - Regimen: Daily Repeat
Assay type: toxicity, organism-based, Sprague-Dawley
Set-up: regimen Daily Repeat, gender Male, age 6-8 weeks
Conditions: in vivo, iv, vehicle 100 % SALINE; for ABSOLUTE BASOPHIL / ABSOLUTE EOSINOPHIL / ABSOLUTE LYMPHOCYTE / ABSOLUTE MONOCYTE / ABSOLUTE SEGMENTED NEUTROPHIL / BASOPHIL / EOSINOPHIL / ERYTHROCYTE COUNT / HEMATOCRIT / HEMOGLOBIN / LEUKOCYTE COUNT / LYMPHOCYTE / MEAN CORPUSCULAR HEMOGLOBIN / MONOCYTE / NEUTROPHIL / NUCLEATED RED BLOOD CELLS / PLATELET COUNT / MEAN CORPUSCULAR HEMOGLOBIN CONCENTRATION / MEAN CORPUSCULAR VOLUME: tissue Blood
[1] = 6 mg/kg, 72 h, dose level High, time 3 day
[2] = 6 mg/kg, 72 h, tissue Plasma, dose level High, time 3 day
[3] = 6 mg/kg, 120 h, dose level High, time 5 day
[4] = 6 mg/kg, 120 h, tissue Plasma, dose level High, time 5 day
[5] = […], 72 h, dose 0.12 mg/Kg, dose level Low, time 3 day
[6] = […], 72 h, tissue Plasma, dose 0.12 mg/Kg, dose level Low, time 3 day
[7] = […], 120 h, dose 0.12 mg/Kg, dose level Low, time 5 day
[8] = […], 120 h, tissue Plasma, dose 0.12 mg/Kg, dose level Low, time 5 day

Substance: SODIUM NITROPRUSSIDE
- ABSOLUTE BASOPHIL [1]: 0 CELLS/uL
- ABSOLUTE EOSINOPHIL [1]: 0 CELLS/uL
- ABSOLUTE LYMPHOCYTE [1]: 16076 CELLS/uL
- ABSOLUTE MONOCYTE [1]: 195 CELLS/uL
- ABSOLUTE SEGMENTED NEUTROPHIL [1]: 1029 CELLS/uL
- BASOPHIL [1]: 0%
- EOSINOPHIL [1]: 0%
- ERYTHROCYTE COUNT [1]: 6.07 x10E6/uL
- HEMATOCRIT [1]: 38.07%
- HEMOGLOBIN [1]: 15 G/DL
- LEUKOCYTE COUNT [1]: 17.3 x10E3/uL
- LYMPHOCYTE [1]: 92.67%
- MEAN CORPUSCULAR HEMOGLOBIN [1]: 24.73 pg
- MONOCYTE [1]: 1%
- NEUTROPHIL [1]: 6.33%
- NUCLEATED RED BLOOD CELLS [1]: 0 /100WBC
- PLATELET COUNT [1]: 1432 x10E3/uL
- ALANINE AMINOTRANSFERASE [2]: 34.67 u/L
- ALBUMIN [2]: 4.5 G/DL
- ALKALINE PHOSPHATASE [2]: 308.33 u/L
- ASPARTATE AMINOTRANSFERASE [2]: 90.67 u/L
- BLOOD UREA NITROGEN [2]: 21.33 mg/dL
- CARBON DIOXIDE [2]: 23.67 mmol/L
- CHOLESTEROL [2]: 68 mg/dL
- CREATINE PHOSPHOKINASE [2]: 251 u/L
- CREATININE [2]: 0.17 mg/dL
- GLUCOSE [2]: 173 mg/dL
- LACTATE DEHYDROGENASE [2]: 383.67 u/L
- LIPASE [2]: 8.33 u/L
- PHOSPHORUS [2]: 13.27 mg/dL
- POTASSIUM [2]: 6.61 MEQ/L
- TOTAL BILIRUBIN [2]: 0.1 mg/dL
- TOTAL PROTEIN [2]: 6.4 G/DL
- URIC ACID [2]: 1.87 mg/dL
- ABSOLUTE BASOPHIL [3]: 0 CELLS/uL
- ABSOLUTE EOSINOPHIL [3]: 139 CELLS/uL
- ABSOLUTE LYMPHOCYTE [3]: 12315 CELLS/uL
- ABSOLUTE MONOCYTE [3]: 50.33 CELLS/uL
- ABSOLUTE SEGMENTED NEUTROPHIL [3]: 1129 CELLS/uL
- BASOPHIL [3]: 0%
- EOSINOPHIL [3]: 1%
- ERYTHROCYTE COUNT [3]: 5.93 x10E6/uL
- HEMATOCRIT [3]: 37.1%
- HEMOGLOBIN [3]: 14.97 G/DL
- LEUKOCYTE COUNT [3]: 13.63 x10E3/uL
- LYMPHOCYTE [3]: 90.33%
- MEAN CORPUSCULAR HEMOGLOBIN [3]: 25.2 pg
- MEAN CORPUSCULAR HEMOGLOBIN CONCENTRATION [3]: 40.33 G/DL
- MEAN CORPUSCULAR VOLUME [3]: 62.57 fL
- MONOCYTE [3]: 0.33%
- NEUTROPHIL [3]: 8.33%
- NUCLEATED RED BLOOD CELLS [3]: 0.33 /100WBC
- PLATELET COUNT [3]: 1277.67 x10E3/uL
- ALANINE AMINOTRANSFERASE [4]: 45.67 u/L
- ALBUMIN [4]: 4.5 G/DL
- ALKALINE PHOSPHATASE [4]: 128.33 u/L
- ASPARTATE AMINOTRANSFERASE [4]: 86 u/L
- CARBON DIOXIDE [4]: 18 mmol/L
- CHOLESTEROL [4]: 61.67 mg/dL
- CREATINE PHOSPHOKINASE [4]: 409.33 u/L
- CREATININE [4]: 0.23 mg/dL
- LACTATE DEHYDROGENASE [4]: 135.67 u/L
- LIPASE [4]: 8.33 u/L
- PHOSPHORUS [4]: 10.9 mg/dL
- POTASSIUM [4]: 16.23 MEQ/L
- TOTAL BILIRUBIN [4]: 0.13 mg/dL
- TOTAL PROTEIN [4]: 6.07 G/DL
- URIC ACID [4]: 1.4 mg/dL
- ABSOLUTE BASOPHIL [5]: 0 CELLS/uL
- ABSOLUTE EOSINOPHIL [5]: 0 CELLS/uL
- ABSOLUTE LYMPHOCYTE [5]: 13522.67 CELLS/uL
- ABSOLUTE MONOCYTE [5]: 88.33 CELLS/uL
- ABSOLUTE SEGMENTED NEUTROPHIL [5]: 1389 CELLS/uL
- BASOPHIL [5]: 0%
- EOSINOPHIL [5]: 0%
- ERYTHROCYTE COUNT [5]: 5.31 x10E6/uL
- HEMATOCRIT [5]: 34.4%
- HEMOGLOBIN [5]: 13.63 G/DL
- LEUKOCYTE COUNT [5]: 15 x10E3/uL
- MEAN CORPUSCULAR HEMOGLOBIN [5]: 25.67 pg
- MEAN CORPUSCULAR HEMOGLOBIN CONCENTRATION [5]: 39.63 G/DL
- MEAN CORPUSCULAR VOLUME [5]: 64.8 fL
- MONOCYTE [5]: 0.67%
- NEUTROPHIL [5]: 9.67%
- NUCLEATED RED BLOOD CELLS [5]: 0.33 /100WBC
- PLATELET COUNT [5]: 1321.67 x10E3/uL
- ALANINE AMINOTRANSFERASE [6]: 54.33 u/L
- ALBUMIN [6]: 4.1 G/DL
- ALKALINE PHOSPHATASE [6]: 342 u/L
- ASPARTATE AMINOTRANSFERASE [6]: 87.33 u/L
- BLOOD UREA NITROGEN [6]: 15 mg/dL
- CARBON DIOXIDE [6]: 26.67 mmol/L
- CHLORIDE [6]: 98.67 MEQ/L
- CHOLESTEROL [6]: 76 mg/dL
- CREATINE PHOSPHOKINASE [6]: 335.67 u/L
- CREATININE [6]: 0.11 mg/dL
- GLUCOSE [6]: 157.67 mg/dL
- LACTATE DEHYDROGENASE [6]: 223 u/L
- PHOSPHORUS [6]: 12.93 mg/dL
- POTASSIUM [6]: 6.73 MEQ/L
- TOTAL BILIRUBIN [6]: 0.23 mg/dL
- TOTAL PROTEIN [6]: 5.9 G/DL
- ABSOLUTE BASOPHIL [7]: 0 CELLS/uL
- ABSOLUTE EOSINOPHIL [7]: 39.33 CELLS/uL
- ABSOLUTE LYMPHOCYTE [7]: 10382.67 CELLS/uL
- ABSOLUTE MONOCYTE [7]: 0 CELLS/uL
- ABSOLUTE SEGMENTED NEUTROPHIL [7]: 444.67 CELLS/uL
- BASOPHIL [7]: 0%
- EOSINOPHIL [7]: 0.33%
- ERYTHROCYTE COUNT [7]: 5.02 x10E6/uL
- HEMATOCRIT [7]: 31.9%
- HEMOGLOBIN [7]: 12.83 G/DL
- LEUKOCYTE COUNT [7]: 10.87 x10E3/uL
- LYMPHOCYTE [7]: 95.67%
- MEAN CORPUSCULAR HEMOGLOBIN [7]: 25.6 pg
- MEAN CORPUSCULAR HEMOGLOBIN CONCENTRATION [7]: 40.23 G/DL
- MEAN CORPUSCULAR VOLUME [7]: 63.6 fL
- MONOCYTE [7]: 0%
- NEUTROPHIL [7]: 4%
- NUCLEATED RED BLOOD CELLS [7]: 0 /100WBC
- PLATELET COUNT [7]: 1212.67 x10E3/uL
- ALANINE AMINOTRANSFERASE [8]: 40.33 u/L
- ALKALINE PHOSPHATASE [8]: 391 u/L
- ASPARTATE AMINOTRANSFERASE [8]: 87.33 u/L
- BLOOD UREA NITROGEN [8]: 17 mg/dL
- CARBON DIOXIDE [8]: 28 mmol/L
- CHOLESTEROL [8]: 71.67 mg/dL
- CREATINE PHOSPHOKINASE [8]: 215.33 u/L
- CREATININE [8]: 0.14 mg/dL
- GLUCOSE [8]: 156.33 mg/dL
- LACTATE DEHYDROGENASE [8]: 79 u/L
- POTASSIUM [8]: 6.73 MEQ/L
- TOTAL BILIRUBIN [8]: 0.23 mg/dL
- TOTAL PROTEIN [8]: 5.87 G/DL
